The text below walks through data of US20020061509A1, “Screening assay for the identification of agents which alter expression of PTH-rP” (Osteo Screen, priority 1996, published 2002).

In one experiment the test system is PTH-rP promoter. The experiment is described as follows: PTH-rP promoter-firefly luciferase reporter assay in stably transfected MDA-MB-231 cells (Clone 30). It counts as cell-based, human. The following applies: concentration of 3.2 μM. The protocol: To perform studies on the PTH-rP promoter in whole cells, a human breast cancer cell line, MDA-MB-23 1 (kindly provided by C. Kent Osborne, San Antonio Tex.) and a human lung cancer cell line, RWGT2, were employed. Various PTH-rP promoters, described in Wysolmerski et al., 1996, were linked with the reporter gene firefly luciferase and stably transfected into cell lines. Plasmid constructs included pGL3B-PTH-rP1.1 and pGL4B-PTHrP 4.0. RWGT2 cells and MDA-MB-231 cells were cultured in DMEM (Life Technologies, Grand Island, N.Y.) with 10% FCS (Hyclone, Logan, Utah), 0.1% penicillin/streptomycin and 0.1% nonessential amino acids (Gibco) in 37° C. atmosphere of 5% CO2 /air.
Before stable transfection of MDA-MB-231 cells with pGL3B-PTH-rP1.1, the concentration of geneticin (G418) required to kill MDA 231 cells was determined to be 500 μg/ml. […]
Sucloning consisted of diluting the geneticin resistant MDA-MB-2311 cells containing pGL3B-PTHrP1.1 to a concentration of 0.3 cells/100 μl. […] The luciferase activity was assessed by luminometer. […] Routinely, 20 μl of cell lysate was mixed with 100 μl of luciferase assay reagent (270 μM co-enzyme A, 470 μM luciferin and 530 μM ATP) and the luciferase activity was measured for 10 seconds in a Turner TD-20e luminometer. […] The protein concentration was assessed using BioRed reagents. […]
A general note: In a reporter assay the amount or activity of a reporter protein is the signal.

The subject of experiment [1] is RWGT2 cells (human squamous cell carcinoma of the lung). Briefly: Hypercalcemia study: nude mice inoculated with RWGT2 cells. It counts as in vivo, BALB/c nude mice. The protocol: Compounds which are identified as regulating PTH-rP production were initially tested for their capacity to inhibit hypercalcemia in vivo by injecting tumor cells into nude mice and treating the mice with the potential inhibitory compounds. Specifically, compounds to be tested were injected into the subcutaneous tissue, intramuscularly, or intravenously into nude mice which were also inoculated with the human cancer cells which produce PTH-rP. The effects on the capacity of the tumor cells to cause hypercalcemia are then assessed over 2-4 weeks.
The tumor, designated RWGT2, is a human squamous cell carcinoma of the lung that was obtained from a hypercalcemic cancer patient (Guise et al, 1993). Metastatic tumor tissue was taken at the time of surgical repair of a pathologic fracture of the femur and implanted into athymic nude mice. The mice developed hypercalcemia, tumors, and increased serum PTH-rP concentrations. Tumor tissue from the mice was used to establish this cell line in culture. The cells produced PTH-rP in culture and reliably produced tumors and hypercalcemia when inoculated intramuscularly into the nude mice.
The RWGT2 cells are grown in culture in T75 flasks in α-minimal essential medium (αMEM, Hazelton Biologics Inc., Lenexa, Kans.) with 10% fetal calf serum and passaged twice a week. The mice are inoculated with RWGT2 cells by subcutaneous inoculation of 1×10^6 cells into the right flank of the upper leg.
All animal studies are conducted in accordance with the NIH Guide for the Care and Use of Laboratory Animals. Male BALB/c nude mice (Harlen), 4-6 weeks of age, are housed in a laminar flow isolator hood with a 12-hour-light/12-hour-dark cycle. Water, supplemented with multivitamins (Lymphomed, Melrose Park, Ill.) and autoclaved mouse chow (Ralston-Purina, St. Louis, Mo.) were provided ad libitum.
Weekly, the mice (each group n=5) are weighed and tumor diameters (long axis and mean axis width) are measured using calipers. Also whole blood samples for ionized calcium (Ca^2+) determination is obtained by retro-orbital puncture under anesthesia and measured using a Ciba Corning 634 ISE Ca^++/pH analyzer. Finally, blood samples for PTH-rP measurements is obtained by retro-orbital puncture and collected on ice, into pediatric vacutainer tubes containing ethylenediamine tetraacetate (EDTA) (Becton Dickinson, Rutherford, N.J.) and aprotinin (Sigma Chemical Company, St. Louis, Mo.), 400KIU/ml and stored at −70° C. Immunoreactive PTH-rP is measured using a 2 site IRMA kit available from Nichols Institute (San Juan Capistrano, Calif.).
For all experiments compound is administered when hypercalcemia is evident (treatment phase) or from the time of inoculation of RWGT2 cells (prevention phase).

In experiment [2] the test system is MDA-MB-231 cells (human breast cell carcinoma). Briefly: Osteolytic bone metastases study: nude mice inoculated with MDA-MB-231 cells into the left ventricle. Type of experiment: in vivo, BALB/c nude mice. The following applies: 50 mg/kg/day; vs vehicle alone. The protocol: Compounds which are identified as regulating PTH-rP production were initially tested for their capacity to inhibit bone metastases in vivo by injecting tumor cells into nude mice and treating the mice with the potential inhibitory compounds. Specifically, compounds to be tested were injected into the subcutaneous tissue, intramuscularly, or intravenously into nude mice which were also inoculated with the human cancer cells which produce PTH-rP. The effects on the capacity of the tumor cells to cause osteolytic bone lesions are then assessed over 2-4 weeks.
The tumor, named MDA-MB-231, is a human breast cell carcinoma. […]
Weekly, the mice are weighed and whole blood samples for ionized calcium (Ca^2+) determination are obtained by retro-orbital puncture under anesthesia and measured using a Ciba Coming 634 ISE Ca^++/pH analyzer.
The number of osteolytic bone metastases is determined on radiographs as described by Nakai (1992). […] The area of osteolytic bone metastases is calculated using a computerized image analysis system in which examination of osteolytic lesions from radiographs is achieved using a fluorescent light box (Kaiser, Germany) and Macro TV Zoom lens 18-108 mm f2,5 (Olympus, Japan) attached to a color video camera (Model DXC- 1 51 Sony, Japan). […] Quantitation of lesion area is performed using image analysis software (Java, Jandel Video Analysis, Jandel Scientific, Calif.). […]

[3] abbreviates: 50 mg/kg/day, administered from day 0 (prevention phase), vs vehicle alone.

As to `C[n+]1c2cc(N)ccc2cc2ccc(N)cc21.[Cl-]` [MS 01500618, acriflavinium hydrochloride], the “stimulation of the PTH-rP promoter assay” value in the experiment on PTH-rP promoter was “about 8 fold”.
Turning to `C(=NNc1nnn[nH]1)c1ccccc1` [OSW3, 5-benzylidene hydrazino-1,2,34-tetrazole], in experiment [1] (setting [3]), the PTH-rP concentrations result is on record as “able to lower” and the “whole blood calcium concentrations” value is listed as “able to lower whole blood calcium concentrations”. Also, the “whole blood calcium concentrations” value in experiment [1] (50 mg/kg/day, after hypercalcemia is evident (treatment phase), vs vehicle alone) was “able to lower whole blood calcium concentrations”. In addition, in experiment [2], the “lesion area of osteolytic metastases” value was “able to significantly lower” and the “lesion number of osteolytic metastases” value is on record as “able to significantly lower”.
Take `Nc1nc2nc[nH]c2c(=S)[nH]1` [OSW6, 6-thioguanine]: the “whole blood calcium concentrations” value in experiment [1] (10 mg/kg/day, administered from day 0 (prevention phase), vs vehicle alone) is “able to significantly lower whole blood calcium concentrations”; in experiment [1] (10 mg/kg/day, after hypercalcemia is evident (treatment phase), vs vehicle alone), “able to lower whole blood calcium concentrations”. Moreover, in experiment [1] (hypercalcemic mice treated (treatment phase)), the “size of the tumor” value is on record as “reduced”.
